Measurements: PMC8198049, “Synthesis and Evaluation of the Tetracyclic Ring-System of Isocryptolepine and Regioisomers for Antimalarial, Antiproliferative and Antimicrobial Activities” (Molecules, 2021)
≈ marks a conversion by molar mass, not a printed value.

Columns and labels:
S. aureus (ATCC 25923) = test: Bacterial growth inhibition assay; format: cell-based, Staphylococcus aureus; conditions: Staphylococcus aureus, ATCC25923
Description: (§1) The prepared samples were tested for in vitro antimicrobial activity against E. faecalis, E. coli, P. aeruginosa, S. aureus, Streptococcus agalactiae and S. epidermis using gentamycin as a reference compound.
(§2) To determine and quantify antimicrobial activity, a bacteria growth inhibition assay in liquid media was executed. Compounds 2–3, 4, 8–10, 13–14, 16, 18, and 20 were tested against Staphylococcus aureus (ATCC 25923), Escherichia coli (ATCC 259233), Enterococcus faecialis (ATCC 29122), Pseudomonas aeruginosa (ATCC 27853) and Streptococcus agalactiae (ATCC 12386); all strains from LGC Standards (Teddington, UK). S. aureus, E. coli, and P. aeruginosa were grown in Muller Hinton broth (275730, Becton, Franklin Lakes, NJ, USA). E. faecalis and S. agalactiae were cultured in brain hearth infusion broth (53286, Sigma, St Louise, MO, USA). Fresh bacterial colonies were transferred in the respective medium and incubated at 37 °C overnight. The bacterial cultures were diluted to a culture density representing the log phase and µL/well were pipetted into a 96-well microtiter plate (734–2097, NunclonTM, Thermo Scientific, Waltham, MA, USA). The final cell density was 1500–15.000 colony forming units/well. The compound was diluted in 2% (v/v) DMSO in ddH2O, providing a final assay concentration of 50% of the prepared sample, since 50 µL of sample in DMSO/water were added to 50 µL bacterial culture. After adding the samples to the plates, they were incubated overnight at 37 °C and the growth was determined by measuring the optical density at λ = 600 nm (OD600) with a 1420 Multilabel Counter VICTOR3TM (Perkin Elmer, Waltham, MA, USA). A water sample was used as a reference control, growth medium without bacteria was used as a negative control and dilution series of gentamycin (A2712, Merck, Darmstadt, DE) from 32 to 0.01 µg/mL was used as positive control and visually inspected for bacterial growth. The positive control was used as a system suitability test and the results of the antimicrobial assay were only considered valid when positive control was passed. The final concentration of DMSO in the assays was ≤2% (v/v) and was known to have no effect in the tested bacteria. The data was processed using GraphPad Prism 8.

E. coli (ATCC 259233) = test: Bacterial growth inhibition assay; format: cell-based, Escherichia coli; conditions: Escherichia coli, ATCC259233
Description: as §1
as §2, with “The final concentration of DMSO in the assays was ≤2% (v/v) and was known to have no effect in the tested bacteria. The data was processed using GraphPad Prism 8.” left out

[1] = system: Streptococcus agalactiae (ATCC 12386); test: Bacterial growth inhibition assay; format: cell-based; conditions: ATCC12386
Description: as §1, §2

[2] = Cytotoxicity assay (resazurin-based viability); format: cell-based; conditions: human, HEK293 cells, mean ± standard deviation, two separate experiments
Description: Fluorescence was measured using an EnSight plate reader (PerkinElmer, Waltham, MA, USA).

[3] = Antiplasmodial imaging assay; format: cell-based, Plasmodium falciparum; conditions: human (HEK293) and Plasmodium falciparum (3D7), HEK293 cells versus Plasmodium falciparum 3D7 culture; HEK293 vs 3D7; read-out: SI (selectivity index = cytotoxicity in HEK293/activity in 3D7)
Description: (§3) Compounds tested in the antiproliferative assays were tested in 11 dilution points (0.02 µM–40 µM or 0.04 µM–80 µM).
(§4) Antiplasmodial activity was determined as previously described by Duffy and Avery. […] After incubation, plates were stained with 4’,6-diamidino-2-phenylindole (DAPI) in a permeabilization buffer for 5 h at rt in the dark. Plates were imaged on the Opera confocal microplate image reader (PerkinElmer).

[4] = system: Plasmodium falciparum 3D7 strain; test: Antiplasmodial imaging assay; format: cell-based; conditions: P. falciparum 3D7, 72 h, mean ± standard deviation, two separate experiments; for IC50: Plasmodium falciparum
Description: as §3, §4

[5] = system: HCT116 (human colon cancer); test: Antiproliferative assay (resazurin); format: cell-based; conditions: for IC50: Homo sapiens, HCT-116, 72 h compound incubation, mean ± sem, two separate experiments
Description: (§5) Compounds tested in the antiproliferative assays were tested in 11 dilution points (0.02 µM–40 µM or 0.04 µM–80 µM). […] HCT116 cells were maintained in McCoy’s 5A media (Life Technologies, CA, USA), MDA-MB-231 cells were cultured in DMEM media (Life Technologies) with 10 mM HEPES (Life Technologies), whilst PC-3 cells were maintained in RPMI media (Life Technologies). All media were supplemented with 10% heat-inactivated fetal bovine serum (Australian source; Corning, CA, USA) and all cells were incubated at 37 °C in a humidified incubator with 5% CO2. Cells were seeded in 384-well plates (Greiner Bio-One, NC, USA) using the respective complete media. After 24 h cell seeding, compounds were added and antiproliferative activity was determined using the resazurin assay after 72 h compound incubation. Briefly, cells were incubated with 60 µM resazurin (Cayman, MI, USA) for 6 h at 37 °C and fluorescence signals were measured using a microplate reader (EnSight, PerkinElmer, Waltham, MA, USA).

[6] = system: MDA-MB-231 (human breast adenocarcinoma); test: Antiproliferative assay (resazurin); format: cell-based; conditions: for IC50: Homo sapiens, MDA-MB-231, 72 h compound incubation, mean ± sem, two separate experiments
Description: as §5

[7] = system: PC-3 (human prostate cancer); test: Antiproliferative assay (resazurin); format: cell-based; conditions: for IC50: Homo sapiens, 72 h compound incubation, mean ± sem, two separate experiments
Description: as §5

[8] = system: S. epidermis (ATCC 35984); test: Biofilm formation inhibition assay; format: cell-based, Staphylococcus epidermidis; conditions: inhibition of biofilm formation
Description: as §1
For testing the inhibition of biofilm formation, the biofilm-producing Staphylococcus epidermidis (ATCC 35984) was grown in Tryptic Soy Broth (TSB, 105459, Merck, Kenilworth, NJ, USA) overnight at 37 °C. The overnight culture was diluted in fresh medium with 1% glucose (D9434, Sigma) before being transferred to a 96-well microtiter plate; 50 µL/well were incubated overnight with 50 µL of the test compound dissolved in 2% (v/v) DMSO aq. added in duplicates. The bacterial culture was removed from the plate and the plate was washed with tap water. The biofilm was fixed at 65 °C for 1 h before 70 µL 0.1% crystal violet (115940, Millipore, Burlington, MA, USA) was added to the wells for 10 min of incubation and 70 µL of 70% ethanol was then added to each well and the plate incubated on a shaker for 5–10 min. Biofilm formation inhibition was assessed by the presence of violet color and measured at […] absorbance using a 1420 Multilabel Counter VICTOR3TM; 50 µL of a non-biofilm forming Staphylococcus haemolyticus (clinical isolate 8-7A, University Hospital of North Norway Tromsø, Norway) mixed in 50 µL autoclaved Milli-Q water was used as a control; 50 µL S. epidermidis mixed in 50 µL autoclaved Milli-Q water was used as the control for biofilm formation; and 50 µL TSB with 50 µL autoclaved Milli-Q water was used as a medium blank control.

[9] = system: HCT116, MDA-MB-231 and PC-3; test: Antiproliferative assay, whole panel of cancer cell lines; format: cell-based, human
Description: as §5

E. faecalis (ATCC 29122) = test: Bacterial growth inhibition assay; format: cell-based, Enterococcus faecialis; conditions: Enterococcus faecalis, ATCC29122
Description: as §1, §2

Structure (SMILES) | MIC (S. aureus (ATCC 25923)) | MIC (E. coli (ATCC 259233)) | MIC [1] | IC50 [4] | IC50 [5] | IC50 [6] | IC50 [7] | melting point | 3D7 IC50 [4] | % at 40 µM (printed in HCT116 IC50 column) ([5]; HCT116, 40 µM) | % at 40 µM (printed in MDA-MB-231 IC50 column) ([6]; MDA-MB-231, 40 µM) | MIC (E. faecalis (ATCC 29122)) | % at 80 µM (printed in MDA-MB-231 IC50 column) ([6]; MDA-MB-231, 80 µM) | IC50 at 72 h [2] | selectivity ratio at 72 h [3] | MBIC [8] | % at 40 µM (PC-3) ([7]; PC-3, 40 µM) | activity against the panel of cancer cell lines [9] | % at 80 µM (PC-3) ([7]; PC-3, 80 µM)
c1ccc2c(c1)[nH]c1ccc3ncccc3c12 [Compound 9a, 7H-Pyrido[2,3-c]carbazole] |  |  | 100 µM (≈ 21.8 µg/mL) | 6825 ± 61 nM | 20000 nM | 21500 nM | 17800 nM | 204 to 205 °C | little to no activity |  |  |  |  | > 80000 nM | > 11.7 | 100 µM |  |  | 
CN1C=Cc2nc3ccccc3c3cccc1c23 [Compound 8a, 4-Methyl-4H-pyrido[4,3,2-gh]phenanthridine] | 75 µM (≈ 17.4 µg/mL) |  |  | 1698 ± 5 nM | 444 ± 52 nM | 360 ± 51 nM | 2570 ± 114 nM | 182 to 183 °C |  |  |  | 75 µM (≈ 17.4 µg/mL) |  | 7410 ± 207 nM | 4.4 |  |  |  | 
c1ccc2c(c1)ncc1c3ccccc3[nH]c21 [Compound 14, 11H-indolo[3,2-c]quinoline] |  |  |  | 977 ± 11 nM | 3570 ± 309 nM |  |  |  |  |  |  |  | 36% at 80 µM ^e | 18460 ± 183 nM | 18.9 |  |  | poor activity | 30% at 80 µM ^f

Compounds with a lower IC50 [4], results first:

MIC (S. aureus (ATCC 25923)) | MIC (E. coli (ATCC 259233)) | MIC [1] | IC50 [4] | IC50 [5] | IC50 [6] | IC50 [7] | melting point | 3D7 IC50 [4] | % at 40 µM (printed in HCT116 IC50 column) ([5]; HCT116, 40 µM) | % at 40 µM (printed in MDA-MB-231 IC50 column) ([6]; MDA-MB-231, 40 µM) | MIC (E. faecalis (ATCC 29122)) | % at 80 µM (printed in MDA-MB-231 IC50 column) ([6]; MDA-MB-231, 80 µM) | Structure (SMILES) | IC50 at 72 h [2] | selectivity ratio at 72 h [3] | MBIC [8] | % at 40 µM (PC-3) ([7]; PC-3, 40 µM) | activity against the panel of cancer cell lines [9] | % at 80 µM (PC-3) ([7]; PC-3, 80 µM)
75 µM (≈ 18.6 µg/mL) | 50 µM (≈ 12.4 µg/mL) | 75 µM (≈ 18.6 µg/mL) | 866 ± 2 nM | 166 ± 16 nM | 1000 ± 297 nM | 24 ± 3 nM |  |  |  |  |  |  | COc1cnc2cccc3c2c1Nc1ccccc1-3 [Compound 4b, 6-methoxy-7H-pyrido[4,3,2-gh]phenanthridine] | 3657 ± 2 nM | 4.2 |  |  |  | 
100 µM (≈ 21.8 µg/mL) |  |  | 548 ± 3 nM | 721 ± 27 nM | 594 ± 140 nM | 1630 ± 173 nM |  |  |  |  | 100 µM (≈ 21.8 µg/mL) |  | c1ccc2c(c1)Nc1ccnc3cccc-2c13 [Compound 4a, 7H-pyrido[4,3,2-gh]phenanthridine] | 2830 ± 92 nM | 5.2 |  |  |  | 
 |  |  | 128 ± 2 nM |  |  |  |  |  | 38% at 40 µM | 24% at 40 µM |  |  | C[n+]1cccc2c3c(ccc21)[nH]c1ccccc13 [Compound 10, 4-Methyl-7H-pyrido[2,3-c]carbazolium Iodide] |  | 214 |  | 36% at 40 µM | no activity | 
